Measurements reported in patent US7744867B2, “PTPase inhibitors and method of using same” (The Cleveland Clinic Foundation, priority 2001, dated 2010).

Columns and labels:
GST/SHP-1 fusion protein = target: T1, GST/SHP-1 fusion protein (Mus musculus, UniProt P29351); assay: In vitro PTPase assay, dephosphorylation of a synthetic phosphotyrosine peptide; type: biochemical; conditions: Sb concentration of 10 μg/ml
T1 construct: made in house
Experimental: In vitro PTPase activities were measured using the commercial protein tyrosine phosphatase assay kit (UBI) following established procedure. This assay measures the in vitro dephosphorylation of a synthetic phosphotyrosine peptide (R-R-L-I-E-D-A-E-pY-A-A-R-G). Briefly, 0.01 μg of GST/PTPase fusion protein was incubated in 50 μl of Tris buffer (10 mM Tris, […]) at 22° C. for 10 minutes, followed by addition of 0.2 mM of the phosphotyrosine peptide and incubation at 22° C. for 18 hours. 100 μl of Malachite Green solution was added and incubated for 5 minutes, and the absorbance at 660 nm was measured after 5 minutes.

[1] = target: T2, MKP1 (GST fusion protein) (Homo sapiens, UniProt P28562); assay: as above; type: biochemical
T2 construct: made in house; host or cells: E. coli DH5a
Experimental: In vitro PTPase activities were measured using the commercial protein tyrosine phosphatase assay kit (UBI) following established procedure. This assay measures the in vitro dephosphorylation of a synthetic phosphotyrosine peptide (R-R-L-I-E-D-A-E-pY-A-A-R-G). Briefly, 0.01 μg of GST/PTPase fusion protein was incubated in 50 μl of Tris buffer (10 mM Tris, pH 7.4) containing different concentrations of inhibitors or chemicals (0 to 1,000 μg/ml) at 22° C. for 10 minutes, followed by addition of 0.2 mM of the phosphotyrosine peptide and incubation at 22° C. for […]. 100 μl of Malachite Green solution was added and incubated for 5 minutes, and the absorbance at 660 nm was measured after 5 minutes.

[2] = tested on: Stat1 tyrosine phosphorylation; assay: IFNα-induced Stat1 tyrosine phosphorylation in cancer cell lines; type: cell-based, human
Experimental: Induction of Stat1 tyrosine phosphorylation by IFNα and/or sodium stibogluconate. For induction of Stat1 tyrosine phosphorylation by IFNα in the absence or presence of sodium stibogluconate, cells grown in 10% FCS RPMI 1640 medium at 37° C. were stimulated with IFNα (50 u/ml) for various time points and treated with or without sodium stibogluconate for 5 minutes prior to termination by lysing the cells in cold lysis buffer (1% NP-40; 50 mM Tris, pH 7.4; 100 mM NaCl; 1 mM EDTA, 10% glycerol, 10 mM sodium molybdic acid and 4 mM AEBSF).
Cell lysate preparation, SDS-PAGE, and Western blotting. Cell lysates were prepared by lysing cells in cold lysis buffer for 30 min and cleared by centrifuging at 14,000 rpm at 4° C. for 15 min. For SDS-PAGE, cell lysates were mixed with equal volume of 2×SDS-PAGE sample buffer, heated at 90° C. for 5 min and separated in 10% SDS-PAGE gels. Cellular proteins in SDS-PAGE gels were transferred to nitrocellulose membrane (Schleicher & Schuell), blocked in 5% milk, probed with antibodies and detected by using an enhanced chemiluminescence kit (ECL, Amersham).

[3] = cited from earlier work
[4] = tested on: WiT49-N1 cells (Wilms tumor); assay: Growth inhibition of human tumor cell lines (MTT); type: cell-based; conditions: SS 12.5 μg/ml, IFNα 1,000 u/ml, alone or combined
From the text: FIG. 9 illustrates growth inhibition of human cell lines of non-hematopoietic malignancies by sodium stibogluconate and/or IFNα. Percentage of growth inhibition of WM9 (A), DU145 (B), MDA231 (C) and WiT49-N1 (D) in the absence or presence of various amounts of sodium stibogluconate and/or IFNα (1,000 u/ml) in day 6 cultures as measured by MTT assays.

[5] = tested on: C42 cells (Prostate cancer); assay: Growth inhibition of human tumor cell lines; type: cell-based; conditions: SS 12.5 μg/ml, IFNα 1,000 u/ml, alone or combined

T2 sequence (P28562 whole entry, species assumed, the tested form may be a part): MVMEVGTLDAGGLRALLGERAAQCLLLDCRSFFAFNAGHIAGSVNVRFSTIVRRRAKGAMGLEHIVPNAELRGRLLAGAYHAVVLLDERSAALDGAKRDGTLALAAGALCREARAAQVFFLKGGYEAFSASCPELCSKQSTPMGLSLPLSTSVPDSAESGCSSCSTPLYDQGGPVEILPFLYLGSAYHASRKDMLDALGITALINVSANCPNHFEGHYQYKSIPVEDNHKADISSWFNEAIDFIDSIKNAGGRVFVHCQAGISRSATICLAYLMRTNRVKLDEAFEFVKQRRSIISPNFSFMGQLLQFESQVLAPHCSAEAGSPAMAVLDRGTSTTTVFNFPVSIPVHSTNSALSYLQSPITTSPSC
T1 sequence (P29351 whole entry, the tested form may be a part): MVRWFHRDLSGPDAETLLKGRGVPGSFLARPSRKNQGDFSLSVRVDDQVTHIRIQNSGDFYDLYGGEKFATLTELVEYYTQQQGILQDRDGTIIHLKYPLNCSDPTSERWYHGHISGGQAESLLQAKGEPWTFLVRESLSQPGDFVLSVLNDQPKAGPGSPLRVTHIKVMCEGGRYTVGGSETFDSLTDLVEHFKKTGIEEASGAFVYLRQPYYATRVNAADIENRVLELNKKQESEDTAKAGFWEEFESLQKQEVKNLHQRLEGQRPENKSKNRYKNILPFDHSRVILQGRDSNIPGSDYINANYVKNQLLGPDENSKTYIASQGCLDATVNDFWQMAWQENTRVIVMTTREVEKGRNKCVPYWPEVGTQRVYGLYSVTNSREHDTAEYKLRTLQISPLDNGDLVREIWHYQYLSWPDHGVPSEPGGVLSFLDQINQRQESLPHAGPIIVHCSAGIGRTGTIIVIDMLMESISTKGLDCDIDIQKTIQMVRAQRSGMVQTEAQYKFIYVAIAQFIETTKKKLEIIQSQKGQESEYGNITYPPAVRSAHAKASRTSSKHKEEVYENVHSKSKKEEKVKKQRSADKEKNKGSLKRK

Compound | effect on recombinant SHP-1 (GST/SHP-1 fusion protein) | inhibitory activity against MKP1 [1] | IFNα-induced Stat1 tyrosine phosphorylation relative to control ([2]; DR cells, 10 μg/ml, 30 min post-stimulation) | Stat1 tyrosine phosphorylation by the drug itself ([2]; DR cells, absence of IFNα) | IFNα-induced Stat1 tyrosine phosphorylation ([2]; DU145 cells, 5 hours post-stimulation) | IFNα-induced Stat1 tyrosine phosphorylation ([2]; WM9 cells, 5 hours post-stimulation) | IFNα-induced Stat1 tyrosine phosphorylation ([2]; WM35 cells) | IFNα-induced Stat1 tyrosine phosphorylation ([2]; WiT49-N1 cells) | blood levels, of peak value ([3]; in 16 hours) | excreted (renal clearance) ([3]; in the first 6 hours) | serum levels ([3]; standard dosage 10-20 mg/kg/day) | % of growth inhibition by day 6 (±s.d.) [4] | % of growth inhibition by day 6 (±s.d.) [5]
O.O.O.O.O.O.O.O.O.O=C([O-])[C@@H]1[O][Sb]2([O-])([O][Sb]34([OH])[O][C@H]([C@H](O)CO)[C@H]([O]3)[C@H](C(=O)[O-])[O]4)[O][C@H]([C@H](O)CO)[C@@H]1[O]2.[Na+].[Na+].[Na+] [sodium stibogluconate] | inactivated | no obvious inhibitory activity | approximately two | failed to induced | Enhanced | Enhanced | failed to enhance | failed to enhance | around 1% | more than 80% | ≥ 10000 ng/mL |  | 
IFNα |  |  |  |  |  |  |  |  |  |  |  | 22 (11) % | +19 (30) %
